The values that follow come from US20160243023A1, “Novel Skin Remodeling Strategy” (ELC MANAGEMENT LLC, priority 2015, published 2016).

Assay [1] has as its system human dermal fibroblasts (HDFs). Kind of assay: Glycated collagen phagocytosis by HDFs (Phagocytosis Index). It is filed as cell-based. The settings on record: beads pre-treated overnight with methylglyoxal; 3 hours incubation with HDFs. The procedure:
• 1. On day 1, HDFs were plated in 24 well plates. • 2. On day 2, HDFs, after reaching confluence, were maintained for 48 hours under starvation conditions. • 3. On day 4, HDFs were incubated for 3 hours with collagen-coated microspheres (2×10^6 beads) as control or with collagen-coated microspheres (2×10^6 beads) that had been pre-treated overnight with glycation inducer, methylglyoxal. HDFs were then washed with PBS to remove unbound and loosely bound beads. • 4. Cell viability was measured using Presto Blue reagent; phagocytosis was measured by the determination of the fluorescence reading of internalized beads, using the procedure described above in Example 1. Results, shown in FIG. 11, are expressed as Phagocytosis Index (i.e., the ratio of the phagocytosis fluorescent signal divided by the viability signal).

For assay [2] the test system is unchanged. Kind of assay: TGFβ1-induced collagen synthesis in HDF after pretreatment with inducers of collagen phagocytosis (PIP EIA). It is filed as cell-based. Conditions: TGFβ1 used alone at 0.25 ng/ml, 72 hours. As for the experimental part:
• 1. On day 1, HDFs were plated in 96 well plates. • 2. On day 2, HDFs, after reaching confluence, were treated with medium (control) or with actives (test materials previously found by the inventors to be phagocytosis enhancers*; data not shown) under starvation conditions for 48 hours (step 1). • 3. On day 4, the actives were removed and the cells were treated with medium or with a collagen inducer, 0.25 ng/ml TGFβ1 in medium, for 72 hours (step 2). • 4. On day 7, medium was collected and analyzed for collagen release using a PIP EIA. The amount of PIP (pro-collagen ng/ml medium) is quantitated by measuring the absorbance using an EIA plate reader. Accurate sample concentrations of PIP can be determined by comparing the specific absorbances to a standard curve. Cell viability also was assessed using a standard 3-(4,5-dimethylthiazol-2-yl)-2,5-diphenyltetrazoliumbromide (MTT) assay. The assay involves the conversion of the water soluble MTT, a yellow tetrazole, to an insoluble purple formazan in living cells. The formazan is then solubilized and the concentration determined by measuring the absorbance at a wavelength of from about 500-600 nm using a spectrophotometer. […]

Take `CC(=O)C=O` [methylglyoxal]: in assay [1], the “uptake by HDFs of pre-treated collagen-coated beads versus beads coated with unmodified collagen (Phagocytosis Index)” value was “substantially the same rate”.

Take “TGFβ1: Transforming Growth Factor Beta 1, collagen inducer”: in assay [2], the “increase in collagen synthesis compared with the non-treated control” value is 30%.
